Test systems include MV4-11; CHRF288-11; U937; MOLM-13; CMS; M07e; CMK; ML-2.
Parameters in all cases: species or system AML cell lines (8); Primary HTS, single concentration about 10 uM, Cell Titer Glo viability; log10 luminescence, per cent inhibition relative to cycloheximide control
Common to all, as to settings: 72 h, relative to cycloheximide control, log10 luminescence, inhibitor
(ATP-based viability assays read luminescence as a measure of living cells.)

Where two headings read alike, the source gives them in different places.

On to `Cc1ccc(C)c(C2=C(c3cn(C)c4ccccc34)C(=O)NC2=O)c1` [SJ000581152-1], for which, in the assay on MV4-11, the MV4-11 %inh worked out at 2.862%. For the same molecule, the CHRF288-11 %inh with CHRF288-11 stood at 30.38%. Also, the U937 %inh in the assay on U937 is on record as 4.715%. In addition, the MOLM-13 %inh in the assay on MOLM-13 amounted to 2.3%. The CMS %inh in the assay on CMS was -1.704%. Also, the M07e %inh with M07e is reported as -1.997%. For the same molecule, the CMK %inh in the assay on CMK is 4.497%. In addition, the ML-2 %inh in the assay on ML-2 is on record as 0.7091%.

As to `NCc1ccc(-c2nc(-c3ccc(Cl)c(O)c3)c(-c3ccncc3)[nH]2)cc1` [SJ000573243-1, AN48585-012A1], in the assay on MV4-11, the MV4-11 %inh is 1.86%. In the assay on CHRF288-11, the CHRF288-11 %inh is recorded as -2.078%. The U937 %inh with U937 is -0.0474%. For the same molecule, the MOLM-13 %inh with MOLM-13 was 4.769%. Besides, the CMS %inh with CMS is on record as -0.03858%. Moreover, in the assay with M07e, the M07e %inh is 3.038%. Also, the CMK %inh in the assay with CMK is 0.6536%. In addition, the ML-2 %inh in the assay on ML-2 came out at 1.975%.

On to `O=C1NC(=NCCc2ccc(Cl)cc2)S/C1=C\c1ccc2ncccc2c1` [SJ000580969-1], for which, in the assay on MV4-11, the MV4-11 %inh is 1.31%. In addition, the CHRF288-11 %inh in the assay on CHRF288-11 is recorded as 2.273%. For the same molecule, in the assay with U937, the U937 %inh was -0.9947%. In addition, the MOLM-13 %inh in the assay on MOLM-13 came to 1.832%. For the same molecule, the CMS %inh in the assay with CMS turned out to be 0.8596%. For the same molecule, the M07e %inh in the assay with M07e is recorded as -1.208%. The CMK %inh in the assay on CMK was determined as 0.9453%. In addition, the ML-2 %inh in the assay on ML-2 is given as -0.5014%.

In the case of `CO[C@@]1(NC(=O)Cc2cccs2)C(=O)N2C(C(=O)O)=C(COC(N)=O)CS[C@@H]21` [SJ000285599-4, CEFOXITIN SODIUM], the MV4-11 %inh in the assay with MV4-11 is -5.193%. Further, the CHRF288-11 %inh in the assay on CHRF288-11 is -4.487%. Besides, the U937 %inh in the assay with U937 is -1.811%. Also, in the assay with MOLM-13, the MOLM-13 %inh was 3.83%. The CMS %inh in the assay with CMS is recorded as -1.051%. The M07e %inh with M07e is -3.67%. For the same molecule, the CMK %inh in the assay with CMK is 1.325%. In addition, the ML-2 %inh with ML-2 is given as -2.877%.

Take `CCCN(CCS(C)(=O)=O)Cc1ccc(-c2ccc3ncnc(Nc4ccc(OCc5cccc(F)c5)c(Cl)c4)c3c2)o1` [SJ000573207-1, U16419/108/1]: the MV4-11 %inh in the assay with MV4-11 stood at 1.09%. Besides, in the assay with CHRF288-11, the CHRF288-11 %inh is on record as 4.347%. The U937 %inh with U937 came out at 4.462%. Besides, the MOLM-13 %inh in the assay on MOLM-13 amounted to 2.051%. The CMS %inh in the assay on CMS was -1.914%. The M07e %inh with M07e is on record as -0.08315%. The CMK %inh in the assay on CMK stood at 1.892%. Also, the ML-2 %inh in the assay on ML-2 came out at 1.001%.

For the molecule `CCCCCCCCCCCCCCSCC(=O)O` [SJ000288209-4, TETRADECYLTHIOACETIC ACID], the MV4-11 %inh with MV4-11 is -0.2387%. In addition, the CHRF288-11 %inh with CHRF288-11 is -0.5942%. In addition, the U937 %inh in the assay on U937 is on record as -2.154%. In addition, the MOLM-13 %inh in the assay with MOLM-13 is reported as -1.133%. Further, the CMS %inh in the assay on CMS is -0.2083%. Moreover, the M07e %inh in the assay with M07e amounted to 1.198%. In the assay with CMK, the CMK %inh is recorded as -1.764%. In addition, the ML-2 %inh in the assay on ML-2 is listed as -0.6377%.

On to `COc1cccc(F)c1C(=O)c1cnc(NC2CCN(S(C)(=O)=O)CC2)nc1N` [SJ000581178-1], for which the MV4-11 %inh in the assay with MV4-11 was 20.51%. In addition, the CHRF288-11 %inh in the assay with CHRF288-11 is 12.21%. The U937 %inh in the assay with U937 is reported as 27.27%. Moreover, the MOLM-13 %inh in the assay on MOLM-13 is 39.82%. Besides, the CMS %inh in the assay with CMS is listed as 16.64%. Moreover, the M07e %inh in the assay on M07e was found to be 26.23%. Moreover, in the assay with CMK, the CMK %inh worked out at 27.9%. Further, in the assay on ML-2, the ML-2 %inh amounted to 11.75%.

Take `C[C@]12CC[C@@H]3c4ccc(O)cc4CC[C@H]3[C@@H]1CCC2=O` [SJ000285760-8, ESTRONE]: the MV4-11 %inh with MV4-11 (MV4-11 %inh, 10 µM) is on record as 1.151%. In addition, the CHRF288-11 %inh in the assay on CHRF288-11 (CHRF288-11 %inh, 10 µM) is 3.613%. Besides, the U937 %inh in the assay with U937 (U937 %inh, 10 µM) is given as -0.6937%. Further, the MOLM-13 %inh with MOLM-13 (MOLM-13 %inh, 10 µM) is given as -0.7843%. Also, the CMS %inh in the assay on CMS (CMS %inh, 10 µM) was -1.181%. For the same molecule, the M07e %inh in the assay on M07e (M07e %inh, 10 µM) is 2.553%. Besides, in the assay on CMK (CMK %inh, 10 µM), the CMK %inh is -1.298%. Moreover, the ML-2 %inh with ML-2 (ML-2 %inh, 10 µM) amounted to 0.7014%.

Take `COc1ccccc1CCN=C1NC(=O)/C(=C/c2ccc3ncccc3c2)S1` [SJ000581106-1]: the MV4-11 %inh in the assay on MV4-11 is reported as 10.91%. Also, in the assay on CHRF288-11, the CHRF288-11 %inh is 4.589%. Besides, the U937 %inh in the assay with U937 came out at 6.939%. Further, the MOLM-13 %inh in the assay on MOLM-13 turned out to be 8.02%. Further, in the assay on CMS, the CMS %inh was determined as 4.605%. Also, the M07e %inh in the assay with M07e is listed as 24.66%. Besides, the CMK %inh in the assay on CMK came out at 41.08%. For the same molecule, the ML-2 %inh in the assay on ML-2 is 10.31%.

Consider `COc1cc2ncn(-c3cc(O[C@H](C)c4ccccc4Cl)c(C(N)=O)s3)c2cc1OC` [SJ000573003-2, U20723/53/1 | U20723/56/1], for which the MV4-11 %inh in the assay on MV4-11 is 78.95%. Besides, in the assay on CHRF288-11, the CHRF288-11 %inh turned out to be 41.02%. Besides, in the assay with U937, the U937 %inh worked out at 82.96%. Moreover, the MOLM-13 %inh in the assay on MOLM-13 was 108.1%. Besides, in the assay on CMS, the CMS %inh is on record as 80.13%. The M07e %inh in the assay on M07e is reported as 88.84%. Further, the CMK %inh with CMK worked out at 110.4%. Further, the ML-2 %inh in the assay on ML-2 was 11.11%.

Regarding `CCn1c(-c2nonc2N)nc2cncc(C(=O)N3CCNCC3)c21` [SJ000573047-1, TP100582-069A1], the MV4-11 %inh in the assay on MV4-11 amounted to 2.106%. Also, the CHRF288-11 %inh with CHRF288-11 was -1.797%. In addition, the U937 %inh in the assay on U937 is 1.348%. Also, in the assay with MOLM-13, the MOLM-13 %inh was 0.2835%. Moreover, the CMS %inh in the assay with CMS turned out to be 1.245%. For the same molecule, the M07e %inh with M07e is reported as 4.058%. Besides, the CMK %inh with CMK is given as -1.515%. Besides, the ML-2 %inh in the assay on ML-2 is recorded as 1.727%.

Consider `CN1CCC(C(=O)Nc2n[nH]c3nnc(-c4ccccc4)cc23)CC1` [SJ000573074-1, JW48822-132A0], for which, in the assay with MV4-11, the MV4-11 %inh turned out to be 34.03%. The CHRF288-11 %inh in the assay with CHRF288-11 was determined as 65.15%. Also, the U937 %inh with U937 is recorded as 1.724%. The MOLM-13 %inh in the assay on MOLM-13 is 8.108%. The CMS %inh in the assay with CMS turned out to be 83.36%. Also, the M07e %inh with M07e is given as 2.861%. For the same molecule, in the assay on CMK, the CMK %inh amounted to 70.18%. For the same molecule, the ML-2 %inh in the assay with ML-2 amounted to 3.693%.

Turning to `CNC(=O)c1cncc(/C=C/c2c(C)cccc2C)c1` [SJ000573249-1, U12068/55/2], in the assay with MV4-11, the MV4-11 %inh is recorded as 1.251%. In addition, the CHRF288-11 %inh in the assay on CHRF288-11 was 2.946%. The U937 %inh in the assay with U937 is reported as -0.6106%. The MOLM-13 %inh in the assay on MOLM-13 worked out at 0.7031%. Besides, the CMS %inh in the assay with CMS was found to be 2.842%. Besides, in the assay on M07e, the M07e %inh was determined as 6.499%. Also, in the assay with CMK, the CMK %inh is reported as 2.958%. The ML-2 %inh with ML-2 is 1.303%.

As to `COC(=O)Nc1nc2ccc(Oc3ccc(NC(=O)Nc4cccc(Cl)c4)cc3)cc2[nH]1` [SJ000573158-1, T278/6/1], the MV4-11 %inh in the assay on MV4-11 came to 87.76%. In the assay on CHRF288-11, the CHRF288-11 %inh amounted to 9.893%. Besides, the U937 %inh in the assay on U937 is 93.62%. The MOLM-13 %inh in the assay with MOLM-13 turned out to be 98.07%. In the assay on CMS, the CMS %inh was 11.78%. The M07e %inh in the assay on M07e stood at 46.36%. Besides, in the assay with CMK, the CMK %inh was found to be 60.27%. For the same molecule, the ML-2 %inh in the assay with ML-2 came out at 61.89%.

As for `CC(C)c1ccc(-c2cc(-c3c[nH]nc3-c3ccccn3)ccn2)cc1` [SJ000573275-1, FVLN/241/7/1], in the assay on MV4-11, the MV4-11 %inh stood at 4.536%. The CHRF288-11 %inh in the assay on CHRF288-11 was 9.433%. In the assay on U937, the U937 %inh was found to be 0.007743%. In addition, in the assay with MOLM-13, the MOLM-13 %inh stood at 2.021%. In the assay with CMS, the CMS %inh is -0.3112%. Also, the M07e %inh in the assay with M07e came out at 2.317%. For the same molecule, the CMK %inh in the assay with CMK is 0.9087%. In addition, in the assay on ML-2, the ML-2 %inh is listed as 1.414%.

In the case of `CN(C)CCOc1ccc(-c2cc(-c3ccc4c(c3)CCC4=NO)c(-c3ccncc3)o2)cc1` [SJ000573227-1, JS84326-047A1], the MV4-11 %inh in the assay on MV4-11 is recorded as 2.356%. The CHRF288-11 %inh in the assay on CHRF288-11 is given as 127%. In the assay on U937, the U937 %inh is given as 9.989%. For the same molecule, the MOLM-13 %inh in the assay on MOLM-13 is 21.06%. Also, in the assay on CMS, the CMS %inh is recorded as 6.225%. Further, the M07e %inh in the assay on M07e is listed as 14.13%. The CMK %inh in the assay on CMK came to 15.46%. The ML-2 %inh with ML-2 worked out at 66.89%.

As for `COc1ccc(C2=C(c3cn(C)c4ccccc34)C(=O)NC2=O)cc1` [SJ000580976-1], the MV4-11 %inh in the assay with MV4-11 was 1.945%. Further, the CHRF288-11 %inh with CHRF288-11 amounted to 0.9018%. Moreover, the U937 %inh with U937 amounted to 2.922%. Also, the MOLM-13 %inh in the assay with MOLM-13 was found to be 0.836%. For the same molecule, in the assay on CMS, the CMS %inh is on record as -2.297%. In addition, the M07e %inh in the assay with M07e was determined as 2.491%. Further, in the assay on CMK, the CMK %inh was found to be 12.52%. Moreover, the ML-2 %inh with ML-2 is -0.4189%.
